Reference: article PMC6560211, “ApoAI-derived peptide increases glucose tolerance and prevents formation of atherosclerosis in mice” (Diabetologia, 2019)
No end group written: not given here.

Key:
J774 macrophages = assay: Cholesterol efflux assay; assay type: cell-based, mouse
Procedure: The mouse macrophage-like cell line J774 (ATCC TIB-67), loaded with ^3H-cholesterol, was used for cholesterol efflux to acceptors (RG54 or ApoA-I) as previously described.
To investigate the functionality of the RG54 peptide in a physiological context, cholesterol efflux from J774 macrophages was employed. Cultured macrophages were loaded with radioactive cholesterol, then incubated for 2 or 4 h with RG54 peptide or ApoA-I at the shown concentrations, followed by quantification of the amount of effluxed ^3H-cholesterol (Fig. 1a,b). […] As most circulating ApoA-I is bound to lipids in various species of HDL, and as the RG54 peptide was shown in the lipid clearance assay to efficiently associate with lipids, we reasoned that lipidation of the RG54 peptide might improve its catalytic activity. To explore this, RG54 was first incubated with lipids as described in ESM Fig. 4d, followed by comparative analyses of the catalytic capacities in cholesterol efflux from cholesterol-loaded macrophages.
Fig. 1 Cholesterol efflux activity of RG54 compared with ApoA-I. (a, b) Concentration dependence of cholesterol efflux from ^3H-cholesterol-labelled J774 cells by lipid-free RG54 or ApoA-I was measured after 2 h (a) or 4 h (b). n=5 for both. Vmax (c) and KM (d) were calculated using the Michaelis–Menten equation. (e–g) Efflux activity of lipid-free (LF) and lipid-bound (LB) RG54 was compared after 2 h. n=3. An acyl CoA:cholesterol O-acyltransferase (ACAT) inhibitor and 8-(4-chlorophenylthio; CPT)-cAMP were used in all experiments to prevent formation of cholesteryl esters of ^3H-cholesterol and to induce expression of ABCA1, respectively. Values are means ± SEM. **p≤0.01, ***p≤0.001

Lepr db (db/db) mice = assay: GTT in db/db mice; assay type: in vivo, mouse
Procedure: Male C57BL/6NTac mice (Taconic, Ejby, Denmark) at 8–9 weeks of age were acclimatised for 1 week on a normal chow diet, then changed to a high-fat diet for 2 weeks (diet-induced obesity; DIO), followed by GTT as indicated. Male Lepr^db (db/db) mice on a BKS background (Taconic) at 5 weeks of age were maintained on a normal chow diet and GTTs were performed at 5.5 and 14 weeks of age as indicated. Blood glucose levels were measured in fresh blood (C57: OneTouch Ultra2, Lifescan, Milpitas, CA, USA; db/db: GlucoSmart Swing, MSP bodmann, Bobingen, Germany) and insulin levels were assayed in serum using ELISA (Mercodia) at the times indicated in ESM Fig. 2. See ESM Methods for more details.
Fig. 4 Acute treatment with RG54 improves glucose tolerance during GTTs in three models of type 2 diabetes. Male C57Bl/6 mice fed a high-fat diet for 2 weeks (a–d) or db/db mice at 5.5 (e–h) or 14 (i–l) weeks old were fasted overnight, then treated with a single i.p. injection of NaCl (negative control, 200 μl; C57, n=12; db/db 5.5 weeks, n=6; db/db 14 weeks, n=6), liraglutide (0.1 mg/kg; C57, n=11; db/db 5.5 weeks, n=6; db/db 14 weeks, n=6), ApoA-I (14 mg/kg; C57, n=12; db/db 5.5 weeks, n=6; db/db 14 weeks, n=6) or RG54 (12 mg/kg; C57, n=12; db/db 5.5 weeks, n=6; db/db 14 weeks, n=5). After a further 3 h, mice received an i.p. glucose load (40 mg/mouse for C57; 50 mg/mouse for db/db) followed by blood and plasma collection at the indicated times, and blood glucose (a,e,i) and plasma insulin (b,f,j) concentrations were determined. Total AUC was calculated (mmol/l × min for glucose, pmol/l × min for insulin) and then normalised to the average value of the relevant NaCl control group to give relative AUC (% control) for glucose (c,g,k) and insulin (d,h,l). Values are means ± SEM. *p≤0.05, **p≤0.01, ***p≤0.001 vs NaCl control […]
We next used type 2 diabetes models with a more advanced phenotype: db/db mice at 5.5 and 14 weeks of age.
At 14 weeks of age, mice were markedly obese with a mean ± SEM body weight of 55.3 ± 0.6 g. […] One mouse was excluded from RG54 treatment group because of very high residual insulin secretion prior to the experiment.
Male C57BL/6NTac mice were purchased from Taconic (Ejby, Denmark) at 8-9 weeks of age, acclimatised for one week on normal chow diet, then changed to a High-Fat Diet (HFD; Research Diets D12492, 60% fat content) for 2 weeks, followed by glucose tolerance testing (GTT) with timings as indicated (ESM Figure 2). Male Leprdb mice (db/db) on BKS background purchased from Taconic (BKS.Cg-m+/+Leprdb/BomTac, Ejby, Denmark) at 5 weeks of age were maintained on normal chow diet and GTTs were performed at 5.5 and 14 weeks of age with timings as indicated (ESM Figure 2). For the GTTs, mice fasted overnight (9 h) were injected with the appropriate treatment, and after an additional 3 h given ip glucose (C57: 40 mg/mouse; db/db: 50 mg/mouse) followed by collection of serum samples at the indicated times. Blood glucose levels were measured in fresh blood (C57: OnetouchUltra2, Lifescan; db/db: GlucoSmart Swing, MSP bodmann) and insulin levels were assayed in serum using ELISA (Mercodia). db/db mice were independently randomized to treatments groups for GTT at each time point as no carry over was expected between experiments due to the acute nature of the treatment effects. Primary outcomes were blood glucose and insulin measurements during the GTT. C57BL/6NTac mice were euthanized immediately after each experiment whereas db/db were euthanized immediately after the GTT at 14 weeks of age. […]
and reproducible clinical symptoms of diabetes than females in these models [5; 6] thus ensuring the reproducibility of clinical symptoms between animals within the study. […]

[1] = db/db 5.5 weeks, 3 h treatment, i.p.

Ac-AEYHAKATEHLSTLSEKAKPALEDLRQGLLPVLESFKVSFLSALEEYTKKLNTQ [RG54]
Vmax of cholesterol efflux, lipid-bound vs lipid-free (J774 macrophages; RG54 first incubated with lipids (DMPC), 2 h, n=3): twofold increase | Vmax of cholesterol efflux (J774 macrophages; lipid-free RG54 compared with ApoA-I, Michaelis-Menten, n=5): significantly lower | cholesterol efflux (J774 macrophages; lipid-free, 3H-cholesterol-loaded J774, 2 or 4 h, ACAT inhibitor and CPT-cAMP, n=5): dose-dependent manner | fasting glucose levels (Lepr db (db/db) mice; [1]): significantly lowered | fasting insulin secretion (Lepr db (db/db) mice; [1]): no significant changes | insulin sensitivity as measured by QUICKI (Lepr db (db/db) mice; [1]): no concomitant change | glucose AUC (Lepr db (db/db) mice; db/db 14 weeks, RG54 12 mg/kg i.p., n=5, vs NaCl): no significant change
